EP1021444B1, “3-CARBOXAMIDE DERIVATIVES OF 5H-PYRROLO[2,1-c][1,4]-BENZODIAZEPINES” (Wyeth, priority 1996, dated 1998)
pIC50: −log10 of the molar value. Structures can show the parent of a compound that is named as a salt. Where two headings read alike, the source gives them in different places.

Tests used:
[1] = tested on: Endogenous Arginine Vasopressin Antidiuretic (V2) Response; assay: Antagonism of endogenous arginine vasopressin antidiuretic (V2) response in conscious rats (urine volume); type: in vivo, Sprague-Dawley rats; details: 10 mg/kg rat p.o.; urine collected for four hours after dosing; no water or food during test
Source text: Effects on the Antagonism of Endogenous Arginine Vasopressin Antidiuretic (V2) Response in Conscious Rats with Free Access to Water Drinking Before but not During the Experiment:
Male or female normotensive Sprague-Dawley rats (Charles River Laboratories, Inc., Kingston, NY) of 400-450 g body weight were supplied with Laboratory Rodent Feed #5001 (PMI Feeds, Inc., Richmond, IN) and water ad libitum. On the day of test, rats were placed individually into metabolic cages equipped with stainless steel screens (to separate the feces from the urine) and funnels for collection of urine. Vehicle or reference agent was given at various oral doses. During the test, rats were not provided with water or food. Urine was collected for four hours after dosing of the test compound. At the end of four hours, urine volume was measured. Urinary osmolality was determined using a Fiske One-Ten Osmometer (Fiske Associates, Norwood, MA, 02062). or an Advanced CRYOMATIC Osmometer, Model 3C2 (Advanced Instruments, Norwood, MA). Determinations of Na^+, K^+ and Cl^- ion were carried out using ion specific electrodes in a Beckman SYNCHRON EL-ISE Electrolyte System analyzer. In the following results, increased urine volume and decreased osmolality relative to AVP-control indicates activity.

[2] = molecular target: T1, Human V2 Vasopressin Receptor (Homo sapiens, UniProt P30518); assay: Binding to membranes of mouse fibroblast cell line (LV-2) transfected with the cDNA expressing the human V2 vasopressin receptor
T1 construct: expressed in transfected cells; host or cells: mouse fibroblast cell line LV-2 (membrane preparation)
Protocol: Binding to Membranes of Mouse Fibroblast Cell Line (LV-2) Transfected with the cDNA Expressing the Human V2 Vasopressin Receptor
Flasks of 175 ml capacity, containing attached cells grown to confluence, are cleared of culture medium by aspiration. The flasks containing the attached cells are rinsed with 2x5 ml of phosphate buffered saline (PBS) and the liquid aspirated off each time. Finally, 5 ml of an enzyme free dissociation Hank's based solution (Specialty Media, Inc., Lafayette, NJ) is added and the flasks are left undisturbed for 2 min. The content of all flasks is poured into a centrifuge tube and the cells pelleted at 300 x g for 15 min. […] The homogenate is centrifuged at 1500 x g for 10 min to remove ghost membranes. The supernatant fluid is centrifuged at 100,000 x g for 60 min to pellet the receptor protein. Upon completion, the pellet is resuspended in a small volume of 50.0 mM Tris.HCl buffer, pH 7.4. The protein content is determined by the Lowry method and the receptor membranes are suspended in 50.0 mM Tris.HCl buffer containing 0.1 mM phenylmethylsulfonylfluoride (PMSF) and 0.2% bovine serum albumin (BSA) to give 2.5 mg receptor protein per ml of suspension.
For binding experiments, the following is added in ml volume to wells of a 96 well format of a microtiter plate: 100.0 ml of 100.0 mM Tris.HCl buffer containing 0.2% heat inactivated BSA, 10.0 mM MgCl2 and a mixture of protease inhibitors: leupeptin, 1.0 mg %; aprotinin, 1.0 mg %; 1,10-phenanthroline, 2.0 mg %; trypsin inhibitor, 10.0 mg % and 0.1 mM PMSF, 20.0 ml of [^3H] Arginine^8, vasopressin (S.A. 75.0 Ci/mmole) at 0.8 nM and the reaction initiated by the addition of 80.0 ml of tissue membranes (200.0 mg tissue protein). The plates are left undisturbed on the bench top for 120 min to reach equilibrium. Non specific binding is assessed in the presence of 1.0 mM of unlabeled ligand, added in 20 ml volume. For test compounds, these are solubilized in 50% dimethylsulfoxide (DMSO) and added in 20.0 ml volume to a final incubation volume of […]. Upon completion of binding, the content of each well is filtered off, using a Brandel® cell Harvester (Gaithersburg, MD). The radioactivity trapped on the filter disk by the ligand-receptor complex is assessed by liquid scintillation counting in a Packard LS Counter, with an efficiency of 65% for tritium. The data are analyzed for IC50 values by the LUNDON-2 program for competition (LUNDON SOFTWARE, OH).

[3] = read-out: Vasopressin Human V2 Receptor Binding

T1 sequence (P30518 whole entry): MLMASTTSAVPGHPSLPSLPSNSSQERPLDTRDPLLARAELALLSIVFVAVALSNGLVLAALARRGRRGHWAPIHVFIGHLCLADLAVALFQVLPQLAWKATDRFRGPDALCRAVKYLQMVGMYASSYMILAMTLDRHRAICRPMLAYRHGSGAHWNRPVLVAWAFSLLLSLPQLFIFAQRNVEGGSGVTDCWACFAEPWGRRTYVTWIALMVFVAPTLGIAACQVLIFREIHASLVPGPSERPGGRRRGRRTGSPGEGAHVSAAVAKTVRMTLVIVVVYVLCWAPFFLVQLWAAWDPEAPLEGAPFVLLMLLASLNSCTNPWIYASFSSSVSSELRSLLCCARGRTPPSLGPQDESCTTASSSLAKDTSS

Structure (SMILES)	Urine Volume (ml/4 hrs) [1] [ml/4 hrs]	pIC50 [2]	pIC50 [2, 3]
O=C(Nc1ccc(C(=O)N2Cc3ccc(C(=O)O)n3Cc3ccccc32)c(Cl)c1)c1ccccc1-c1ccccc1 [Example 7, 10-{4-[(Bipheny-2-carbonyl)-amino]-2-chloro-benzoyl)-10,11-dihydro-5H-benzo[e]pyrrolo[1,2-a][1,4] diazepine-3-carboxylic acid]	19.2	–	–
Cc1ccc(F)cc1C(=O)Nc1ccc(C(=O)N2Cc3ccc(C(=O)N[N+](C)(C)C)n3Cc3ccccc32)c(Cl)c1 [Example 4, 2-[[10-[2-Chloro-4-[(5-fluoro-2-methylbenzoyl)amino]benzoyl]-10,11-dihdro-5H-pyrrolo{2,1-c][1,4]benzodiazepin-3-yl]carbonyl]-1,1,1-trimethylhydrazinium iodide]	9.2	7.22	–
Cc1ccc(F)cc1C(=O)Nc1ccc(C(=O)N2Cc3ccc(C(=O)[O-])n3Cc3ccccc32)c(Cl)c1.[K+] [Example 2, 10-[2-Chloro-4-(5-fluoro-2-methyl-benzoylamino)-benzoyl]-10,11-dihydro-5H-pyrrolo[2,1-c][1,4]benzodiazepine-3-carboxylic acid, potassium salt (1:1)]	11.5	–	–
Cc1ccc(F)cc1C(=O)Nc1ccc(C(=O)N2Cc3ccc(C(=O)[N-][N+](C)(C)C)n3Cc3ccccc32)c(Cl)c1 [Example 5, 2-[[10-[2-Chloro-4-[(5-fluoro-2-methylbenzoyl)amino]benzoyl]-10,11-dihydro-5H-pyrrolo[2,1-c][1,4]benzodiazepin-3-yl]hydroxymethylene]-1,1,1-trimethylhydrazinium inner salt]	9.1	7.22	–
O=C(Nc1ccc(C(=O)N2Cc3ccc(C(=O)C(Cl)(Cl)Cl)n3Cc3ccccc32)c(Cl)c1)c1ccccc1-c1ccccc1 [Example 6]	–	8.25	–
Cc1ccc(F)cc1C(=O)Nc1ccc(C(=O)N2Cc3ccc(C(=O)NN(C)C)n3Cc3ccccc32)c(Cl)c1 [Example 3, N-{3-Chloro-4-[3-(N', N'-dimethyl-hydrazinocarbonyl)-5H,11H-pyrrolo[2,1-c][1,4]benzodiazepine-10-carbonyl]-phenyl}-5-fluoro-2-methyl-benzamide]	22	–	7.82
CN(C)CCN(C)C(=O)c1ccc2n1Cc1ccccc1N(C(=O)c1ccc(NC(=O)c3ccccc3-c3ccccc3)cc1Cl)C2 [Example 10, 10-{4-[(Biphenyl-2-carbonyl)-amino]-2-chloro-benzoyl}-10,11-dihydro-5H-pyrrolo[2,1-c][1,4]benzodiazepine-3-carboxylic acid (2-dimethylamino-ethyl)-methyl-amide]	22.2	–	8.26
O=C(O)CNC(=O)c1ccc2n1Cc1ccccc1N(C(=O)c1ccc(NC(=O)c3ccccc3-c3ccccc3)cc1Cl)C2 [Example 18, 10-{4-[(Biphenyl-2-carbonyl)-amino]-2-chloro-benzoyl}-10,11-dihydro-5H-pyrrolo[2,1-c][1,4]benzodiazepine-3-carboxylic acid (glycyl)-amide]	7.8	8.12	–
CN(C)CCNC(=O)c1ccc2n1Cc1ccccc1N(C(=O)c1ccc(NC(=O)c3ccccc3-c3ccccc3)cc1Cl)C2 [Example 14, 10-{4-[(Biphenyl-2-carbonyl)-amino]-2-chloro-benzoyl}-10,11-dihydro-5H-pyrrolo[2,1-c][1,4]benzodiazepine-3-carboxylic acid (2-dimethylamino-ethyl) -amide]	11.3	–	–
O=C(Nc1ccc(C(=O)N2Cc3ccc(C(=O)N4CCC(N5CCOCC5)CC4)n3Cc3ccccc32)c(Cl)c1)c1ccccc1-c1ccccc1 [Example 15, Biphenyl-2-carboxylic acid{3-chloro-4-[3-(4-morpholino-piperidine-1-carbonyl)-5H,11H-pyrrolo[2,1-c][1,4]benzodiazepine-10-carbonyl]-phenyl}-amide.]	–	7.97	–
COc1cc(NC(=O)c2ccccc2-c2ccccc2)ccc1C(=O)N1Cc2ccc(C(=O)NN(C)C)n2Cc2ccccc21 [Example 17]	9.4	–	–
CN(C)NC(=O)c1ccc2n1Cc1ccccc1N(C(=O)c1ccc(NC(=O)c3ccccc3-c3ccccc3)cc1Cl)C2 [Example 8]	40.9	8.07	–
Cc1ccc(F)cc1C(=O)Nc1ccc(C(=O)N2Cc3ccc(C(=O)O)n3Cc3ccccc32)c(Cl)c1 [Example 1, 10-[2-Chloro-4-(5-fluoro-2-methyl-benzoylamino)-benzoyl]-10,11-dihydro-5H-pyrrolo[2,1-c][1,4]benzodiazepine-3-carboxylic acid]	13.2	–	7.85
O=C(Nc1ccc(C(=O)N2Cc3ccc(C(=O)N4CCC(N5CCCCC5)CC4)n3Cc3ccccc32)c(Cl)c1)c1ccccc1-c1ccccc1 [Example 11, Biphenyl-2-carboxylic acid{3-chloro-4-[3-(4-piperidinyl-piperidine-1-carbonyl)-5H,11H-pyrrolo[2,1-c][1,4]benzodiazepine-10-carbonyl]-phenyl}-amide.]	–	8.03	–
CN(C)C1CCN(C(=O)c2ccc3n2Cc2ccccc2N(C(=O)c2ccc(NC(=O)c4ccccc4-c4ccccc4)cc2Cl)C3)CC1 [Example 12, Biphenyl-2-carboxylic acid{3-chloro-4-[3-(4-dimethylamino-piperidine-1-carbonyl)-5H,11H-pyrrolo[2,1-c][1,4]benzodiazepine-10-carbonyl]-phenyl}-amide.]	21.4	–	–
COc1cc(NC(=O)c2ccccc2-c2ccccc2)ccc1C(=O)N1Cc2ccc(C(=O)N3CCN(C)CC3)n2Cc2ccccc21 [Example 16]	24.3	–	–
CN1CCN(NC(=O)c2ccc3n2Cc2ccccc2N(C(=O)c2ccc(NC(=O)c4ccccc4-c4ccccc4)cc2Cl)C3)CC1 [Example 13, Biphenyl-2-carboxylic acid{3-chloro-4-[3-(4-methyl-piperazine-1 aminocarbonyl)-5H,11H-pyrrolo[2,1-c][1,4]benzodiazepine-10-carbonyl]-phenyl}-amide.]	16.8	–	–
